The term IC50 denotes the concentration at which inhibition is half-maximal. Low values mean greater potency, high ones weaker potency.

The structures appear in SMILES notation.

The target in this experiment is T1, Dihydrofolate reductase (Homo sapiens, UniProt P00374).
T1 sequence (P00374 whole entry): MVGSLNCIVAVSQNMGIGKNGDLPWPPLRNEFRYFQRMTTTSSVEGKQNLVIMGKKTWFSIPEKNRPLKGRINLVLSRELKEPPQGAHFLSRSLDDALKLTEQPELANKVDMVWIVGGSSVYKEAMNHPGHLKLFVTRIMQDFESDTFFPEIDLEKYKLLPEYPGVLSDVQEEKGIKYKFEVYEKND
The experiment in a line: Dihydrofolate Reductase (DHFR) Assay. The conditions noted are these: pH 7.4; 30 °C. How it is done: DHFRs were assayed spectrophotometrically in the reaction buffer solution containing dihydrofolate. The reaction was initiated with an amount of enzyme yielding a change in optical density at 340 nm of 0.015/min.
`CCc1[nH]c2nc(N)[nH]c(=O)c2c1Sc1c(C)cccc1C` [2-amino-5-[(2,6-dimethylphenyl)sulfanyl]-6-ethyl-3H,4H,7H-pyrrolo[2,3-d]pyrimidin-4-one] displayed an IC50 above 31 µM.

Regarding `CCc1[nH]c2nc(N)[nH]c(=O)c2c1Sc1ccc(Cl)c(Cl)c1` [2-amino-5-[(3,4-dichlorophenyl)sulfanyl]-6-ethyl-3H,4H,7H-pyrrolo[2,3-d]pyrimidin-4-one], the IC50 was above 27 µM.

Consider `CCc1[nH]c2nc(N)nc(O)c2c1Sc1cccc(Br)c1` [2-amino-5-[(3-bromophenyl)sulfanyl]-6-ethyl-3H,4H,7H-pyrrolo[2,3-d]pyrimidin-4-one], for which the IC50 is above 27 µM.

`CCc1[nH]c2nc(N)nc(O)c2c1Sc1cccc(Cl)c1` [2-amino-5-[(3-chlorophenyl)sulfanyl]-6-ethyl-3H,4H,7H-pyrrolo[2,3-d]pyrimidin-4-one] yielded an IC50 above 31 µM.

`CCc1[nH]c2nc(N)nc(O)c2c1Sc1ccc(Br)cc1` [2-amino-5-[(4-bromophenyl)sulfanyl]-6-ethyl-3H,4H,7H-pyrrolo[2,3-d]pyrimidin-4-one] displayed an IC50 above 26 µM.

`CCc1[nH]c2nc(N)[nH]c(=O)c2c1Sc1cc(C(F)(F)F)cc(C(F)(F)F)c1` [2-amino-5-{[3,5-bis(trifluoromethyl)phenyl]sulfanyl}-6-ethyl-3H,4H,7H-pyrrolo[2,3-d]pyrimidin-4-one] had an IC50 above 24 µM.

Consider `CCc1[nH]c2nc(N)nc(O)c2c1Sc1ccc(F)cc1` [2-amino-6-ethyl-5-[(4-fluorophenyl)sulfanyl]-3H,4H,7H-pyrrolo[2,3-d]pyrimidin-4-one], for which the IC50 is above 32 µM.

On to `CCc1[nH]c2nc(N)nc(O)c2c1Sc1ccc([N+](=O)[O-])cc1` [2-amino-6-ethyl-5-[(4-nitrophenyl)sulfanyl]-3H,4H,7H-pyrrolo[2,3-d]pyrimidin-4-one], for which the IC50 was above 29 µM.

(Values after BindingDB's records for doi:10.1021/jm058276a (Duquesne University, 2006).)
